From US6589971B1, “Bis-benzazoles and their use as antineoplastic agents” (The Queens University of Belfast, priority 1999, dated 2003)
“And” between values parts separate entries of the source, which are not always exact repeats. Equal entries are not always repeated.

Assays:
[1] = system: A/T sites of a natural DNA fragment; experiment: DNase I footprinting with a natural DNA fragment; format: binding; details: for DNA site preference: natural DNA fragment
Excerpt: The ability of the head-to-head bis-benzimidazoles to discriminate between the 136 possible tetranucleotide sequences may be further enhanced by flanking sequence preferences. These remain to be systematically explored.

A2780 = experiment: Cytotoxicity (growth inhibition), 96 hour exposure, ovarian cell line panel; details: read-out: Cytotoxicity IC50, A2780
Protocol: (§1) Assessment of growth inhibition was performed in a small panel of (e.g.) human ovarian carcinoma cell lines using the Sulforhodamine B (SRB assay) (Kelland et al, Cancer Research 54, 5618-5622 (1994). The cell lines grew as monolayers in Dulbecco's Modified Eagle's medium containing 10% foetal bovine serum (Imperial Laboratories, Andover, UK) supplemented with 2 mM glutamine and 0.5 μg/ml hydrocortisone in 6% CO2/94% air. The compound to be tested was dissolved in 10% dimethylsulfoxide. Cells were seeded into 96-well microtitre plates at 3000-5000 per well and allowed to attach overnight. Serial dilutions of drug in growth medium were then added to quadruplicate wells (with 8 control untreated wells) and left to incubate under normal growth conditions for 96 hr, unless otherwise stated. The medium was then removed and wells fixed with 10% trichloroacetic acid and stained with 0.4% SRB in 1% acetic acid as described previously (Kelland et al ref). Basic amino acid content in each well was then measured by solubilizing the bound SRB with 10 mM Tris and using a Titertek Multiscan MCC/340 MKII plate reader set at 540 nm. Mean absorbance was then expressed as a percentage of the control untreated well absorbance and plotted vs drug concentration. Comparisons were made in terms of IC50 values, (the concentration that reduced the mean absorbance to 50% of those in control wells) and Resistance Factors (RF, the IC50 in a resistant subline vs its parent line).

A2780-PT^R = experiment: as above; details: read-out: Cytotoxicity IC50, A2780-PT^R
Protocol: as §1

CH1 = experiment: as above; details: read-out: Cytotoxicity IC50, CH1
Protocol: as §1

SKOV-3 = experiment: as above; details: read-out: Cytotoxicity IC50, SKOV-3, SKOV-3 ovarian cell line
Protocol: as §1

MCF-7 (breast) = experiment: Growth inhibition, carcinoma cell lines (MTT assay or cell counting); format: cell-based; details: 96 hour exposure, repeat determinations
Protocol: Compounds 8 and 13 were then tested more extensively against a range of carcinoma cell lines: MCF-7 (breast,); RKO and H630 (colon); A2780 and OAW42 (ovary) and H838 (lung).
Figures in bold were determined using cell counting method, all other values by the MTT assay.
The growth inhibition assays reported above were carried out using standard techniques, some examples of which are detailed below.

[2] = system: ovarian carcinoma cell lines; experiment: Cytotoxicity across the group of four ovarian carcinoma cell lines; format: cell-based, human; details: versus compounds 8 and 9; in three out of the four lines
Protocol: Assessment of growth inhibition was performed in a small panel of (e.g.) human ovarian carcinoma cell lines using the Sulforhodamine B (SRB assay) (Kelland et al, Cancer Research 54, 5618-5622 (1994). The cell lines grew as monolayers in Dulbecco's Modified Eagle's medium containing 10% foetal bovine serum (Imperial Laboratories, Andover, UK) supplemented with 2 mM glutamine and 0.5 μg/ml hydrocortisone in 6% CO2/94% air. The compound to be tested was dissolved in 10% dimethylsulfoxide. Cells were seeded into 96-well microtitre plates at 3000-5000 per well and allowed to attach overnight. Serial dilutions of drug in growth medium were then added to quadruplicate wells (with 8 control untreated wells) and left to incubate under normal growth conditions for 96 hr, unless otherwise stated. The medium was then removed and wells fixed with 10% trichloroacetic acid and stained with 0.4% SRB in 1% acetic acid as described previously (Kelland et al ref). Basic amino acid content in each well was then measured by solubilizing the bound SRB with 10 mM Tris and using a Titertek Multiscan MCC/340 MKII plate reader set at 540 nm. Mean absorbance was then expressed as a percentage of the control untreated well absorbance and plotted vs drug concentration. […]

[3] = system: ovarian lines in the NCI 60-cell line panel; experiment: NCI 60-cell line panel; format: cell-based; details: several ovarian lines
[4] = system: transcription at A/T sites; experiment: In vitro transcription assay; format: biochemical
Excerpt: Compound (13) has been examined in an in vitro transcription assay. […] In addition, compound (13) inhibited transcription at least 10-fold more efficiently than compound (9), consistent with its increased cytoxicity. It is thus tempting to speculate that the activity of (13) in vitro and in vivo may be related to its potent ability to inhibit transcription specifically at a small sub-set of A/T sites.

Row | Compound | DNA site preference [1] | IC50 (A2780) [µM] | IC50 (A2780-PT^R) [µM] | IC50 (CH1) [µM] | IC50 (SKOV-3) [µM] | IC50 (MCF-7 (breast)) | affinity for 5′-TATA sites ([1]; 5′-TATA sites) | Kd ([1]; quantitative DNase I footprinting, 5′-AATT site, read-out: affinity for the 5′-AATT site) [µM] | binding to AT-sites, fold better than compound (9) ([1]; relative to compound (9)) | cytotoxic activity, fold more active than the others [2] | activity in ovarian lines of NCI 60-cell line panel [3] | inhibition of transcription ([4]; at a number of A/T sites) | inhibition of transcription, fold more efficient than compound (9) ([4]; relative to compound (9))
1 | Oc1ccc(-c2nc3cc(-c4ccc5[nH]c(-c6ccc(O)cc6)nc5c4)ccc3[nH]2)cc1 [Compound 9, 4′,4′-[5,5-bi-1H-Benzimidazole]-2,2-diylbis-phenol] | interact preferentially with some A/T sites | 4.3 | 2.7 | 1.05 | 16 |  |  |  |  |  |  |  | 
2 | CN(C)CCCOc1ccc(-c2nc3cc(-c4ccc5[nH]c(-c6ccc(OCCCN(C)C)cc6)nc5c4)ccc3[nH]2)cc1 [Compound 13, 2,2-bis-[4′-(3″-Dimethylamino-1″-propyloxy)phenyl]-5,5-bi-1H-benzimidazole] | interact preferentially with some A/T sites | 0.235 | 0.115 | 0.24 | 0.375 | 0.043 µM and 0.069 µM | relatively low affinity | 0.03 | 7-10 fold | over 10 fold | significant activity | effectively inhibits transcription at a number of A/T sites | at least 10 fold
3 | CN1CCN(c2ccc3[nH]c(-c4ccc5[nH]c(-c6ccc(O)cc6)nc5c4)nc3c2)CC1 [Hoechst 33258, reference compound] |  | 12 | 9.5 | 26.5 | > 100 |  |  |  |  |  |  |  | 
